Assay results taken from ChEMBL document CHEMBL1201862, “PubChem BioAssay data set” (2004).
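Tested at 5 concentrations; 48 h exposure; 96-well plates; endpoints linearly interpolated, else capped at highest concentration. Here, GI50 denotes the concentration required for 50% inhibition of growth.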 The source made the active and inactive calls. Cut-off read from the data, not from the text of the source: active = GI50 up to about 1.1 µM and inactive = higher.

Experiments:
Assay in all cases: DTP human tumour cell line panel, 48 h
UO-31 = tested on: UO-31
MOLT-4 = tested on: MOLT-4
OVCAR-5 = tested on: OVCAR-5
NCI-H460 = tested on: NCI-H460
UACC-62 = tested on: UACC-62
SK-OV-3 = tested on: SK-OV-3
A498 = tested on: A498
SK-MEL-28 = tested on: SK-MEL-28
HOP-92 = tested on: HOP-92
SW-620 = tested on: SW-620
ACHN = tested on: ACHN
HCC 2998 = tested on: HCC 2998
SR = tested on: SR
CAKI-1 = tested on: CAKI-1
RPMI-8226 = tested on: RPMI-8226
HL-60 = tested on: HL-60

Measured: GI50

[N-]=[N+]=Nc1nnc(CCCCc2nnc(N=[N+]=[N-])o2)o1
inactive: UO-31 > 100 µM | MOLT-4 > 100 µM | OVCAR-5 > 100 µM | NCI-H460 > 100 µM | UACC-62 > 100 µM | SK-OV-3 > 100 µM | A498 > 100 µM | SK-MEL-28 > 100 µM | HOP-92 > 100 µM | SW-620 > 100 µM | ACHN > 100 µM | HCC 2998 > 100 µM

N#Cc1cc([N+](=O)[O-])ccc1NC(=O)C(F)(F)F
inactive: UO-31 > 100 µM | SR > 100 µM | MOLT-4 > 100 µM | CAKI-1 > 100 µM | RPMI-8226 > 45.8 µM | OVCAR-5 > 100 µM | NCI-H460 > 42.3 µM | UACC-62 > 100 µM | SK-OV-3 > 100 µM | A498 > 100 µM | SK-MEL-28 > 100 µM | HOP-92 58.7 µM | HL-60 > 57.1 µM | SW-620 > 40.9 µM | ACHN > 100 µM | HCC 2998 > 100 µM

COC(=O)C(=O)C(C(=O)C(=O)Nc1cc([N+](=O)[O-])ccc1[N+](=O)[O-])c1nc2ccc(C(=O)c3ccccc3)cc2nc1O (stereo not drawn)
inactive: UO-31 17.4 µM | SR 21.7 µM | MOLT-4 18.1 µM | CAKI-1 19.3 µM | RPMI-8226 20.1 µM | OVCAR-5 20.7 µM | NCI-H460 35.4 µM | SK-OV-3 34.2 µM | A498 20.9 µM | SW-620 28.4 µM | ACHN 34.8 µM | HCC 2998 > 100 µM

CN/N=C(\C(=O)Nc1ccc(C(F)(F)F)cc1[N+](=O)[O-])C(c1cnc2ccc([N+](=O)[O-])cc2n1)[N+](=O)[O-] (stereo not drawn)
inactive: UO-31 16 µM | SR 27.7 µM | MOLT-4 14.8 µM | CAKI-1 14.3 µM | RPMI-8226 38.2 µM | OVCAR-5 22.9 µM | NCI-H460 33.3 µM | UACC-62 > 10 µM | SK-OV-3 > 100 µM | A498 16.7 µM | SK-MEL-28 > 100 µM | HOP-92 64.1 µM | SW-620 46 µM | ACHN 21.8 µM | HCC 2998 49.5 µM

CC1(C)OC2C(=O)OC(COCc3ccccc3)C2O1 (stereo not drawn)
inactive: UO-31 > 100 µM | SR 78.9 µM | MOLT-4 > 100 µM | CAKI-1 > 100 µM | RPMI-8226 > 100 µM | OVCAR-5 > 100 µM | NCI-H460 > 100 µM | UACC-62 > 100 µM | A498 > 100 µM | SK-MEL-28 > 100 µM | HOP-92 > 100 µM | HL-60 > 100 µM | SW-620 > 100 µM | ACHN > 100 µM | HCC 2998 > 100 µM

Nc1nc2c(ncn2Cc2ccccc2CCO)c(=O)[nH]1
inactive: UO-31 > 100 µM | MOLT-4 > 100 µM | CAKI-1 > 100 µM | RPMI-8226 > 100 µM | OVCAR-5 > 100 µM | NCI-H460 > 100 µM | UACC-62 > 100 µM | SK-OV-3 > 100 µM | A498 > 100 µM | SK-MEL-28 > 100 µM | HOP-92 > 100 µM | HL-60 > 100 µM | SW-620 > 100 µM | ACHN > 100 µM | HCC 2998 > 100 µM

COc1ccc(C2Oc3c(c(O)cc4c3[C@H](c3ccc(O)cc3O)[C@H](O)C(c3ccc(O)c(O)c3)O4)C[C@@H]2O)cc1O (stereo partly drawn)
inactive: UO-31 > 100 µM | SR > 100 µM | MOLT-4 > 100 µM | CAKI-1 > 100 µM | RPMI-8226 > 100 µM | OVCAR-5 > 100 µM | NCI-H460 > 100 µM | UACC-62 > 100 µM | SK-OV-3 > 100 µM | A498 > 100 µM | HOP-92 > 100 µM | HL-60 > 100 µM | SW-620 > 100 µM | ACHN > 100 µM | HCC 2998 > 100 µM

COC(=O)C(=O)C(C(C)=O)C(=O)NCc1ccc(OC)c(OC)c1 (stereo not drawn)
inactive: UO-31 > 100 µM | SR > 100 µM | MOLT-4 > 100 µM | CAKI-1 > 100 µM | OVCAR-5 > 100 µM | NCI-H460 > 100 µM | UACC-62 > 100 µM | SK-OV-3 > 100 µM | A498 > 100 µM | SK-MEL-28 > 100 µM | HOP-92 > 100 µM | HL-60 > 100 µM | SW-620 40.5 µM | ACHN > 100 µM | HCC 2998 > 100 µM

Oc1nc2cc(Cl)ccc2nc1/C(=N\Nc1ccccc1)C(O)c1ccc(Cl)c(Cl)c1 (stereo not drawn)
inactive: UO-31 > 100 µM | SR > 100 µM | MOLT-4 > 100 µM | RPMI-8226 > 100 µM | OVCAR-5 > 100 µM | NCI-H460 > 100 µM | UACC-62 > 100 µM | SK-OV-3 > 100 µM | HOP-92 > 100 µM | HL-60 > 100 µM | SW-620 > 100 µM | ACHN > 100 µM | HCC 2998 > 100 µM

COc1ccc(OC)c(NC(=O)C(=O)C(C(C)=O)c2nc3ccc(Cl)cc3nc2O)c1 (stereo not drawn)
inactive: UO-31 > 50 µM | MOLT-4 > 50 µM | CAKI-1 > 50 µM | RPMI-8226 > 50 µM | OVCAR-5 > 50 µM | NCI-H460 > 50 µM | UACC-62 > 50 µM | SK-OV-3 > 50 µM | A498 > 50 µM | SK-MEL-28 > 50 µM | HOP-92 > 50 µM | HL-60 > 50 µM | SW-620 > 50 µM | ACHN > 50 µM | HCC 2998 > 50 µM

Clc1cccc(C2SCc3nc4ccccc4n32)c1 (stereo not drawn)
inactive: SR 16.3 µM | MOLT-4 23.1 µM | CAKI-1 27 µM | RPMI-8226 14.2 µM | OVCAR-5 15 µM | NCI-H460 27.8 µM | UACC-62 13.8 µM | SK-OV-3 21.6 µM | SK-MEL-28 19.1 µM | HOP-92 11.5 µM | HL-60 7.57 µM | SW-620 32.9 µM | ACHN 18.4 µM

COC1(OC)CC2CCCCC2=C(C)N1S(=O)(=O)c1ccccc1 (stereo not drawn)
inactive: UO-31 > 100 µM | SR > 100 µM | MOLT-4 > 10 µM | CAKI-1 > 100 µM | RPMI-8226 > 100 µM | OVCAR-5 > 100 µM | NCI-H460 > 100 µM | UACC-62 > 100 µM | SK-OV-3 > 100 µM | SK-MEL-28 > 100 µM | HOP-92 > 100 µM | HL-60 > 100 µM | SW-620 > 100 µM | ACHN > 100 µM

COC(=O)/C(=N/NC(C)(C)C)C(C(=O)C=C(C)C)C(=O)C(=O)Nc1ccc(Cl)cc1C (stereo not drawn)
inactive: UO-31 > 100 µM | SR > 100 µM | MOLT-4 > 100 µM | CAKI-1 > 100 µM | RPMI-8226 > 100 µM | OVCAR-5 > 100 µM | NCI-H460 > 100 µM | UACC-62 > 100 µM | SK-OV-3 > 100 µM | A498 > 100 µM | SK-MEL-28 > 100 µM | HL-60 > 100 µM | SW-620 > 100 µM | ACHN > 100 µM | HCC 2998 > 100 µM

CCN(CC)c1ccc(/N=N/c2ccc(-c3nc4cccn(C)c-4n3)cc2)cc1
inactive: UO-31 17.1 µM | SR 2.51 µM | MOLT-4 2.23 µM | CAKI-1 16.6 µM | RPMI-8226 2.36 µM | OVCAR-5 3.56 µM | NCI-H460 5.07 µM | UACC-62 11.9 µM | SK-OV-3 17.3 µM | A498 14.9 µM | HOP-92 11.7 µM | HL-60 1.75 µM | SW-620 7.36 µM
